The test system of this assay is Mycobacterium bovis BCG. As to the kind of experiment: microbe, parasite or virus in culture. The class given is cell-based. The settings on record: for IC50: M. bovis BCG growth, 8 days incubation; for inhibition at 1 µg/mL: read-out: % Inhibition of growth of Mycobacterium Bovis BCG, at 1 μg/ml concentration.
[1] abbreviates: Mycobacterium tuberculosis variant bovis BCG, BCG, 192 h.
Where [2] appears, read: Mycobacterium tuberculosis variant bovis BCG, BCG.

Converted amounts (≈) assume the structure as drawn.

Broadly, the IC50 is the midpoint of a concentration-inhibition curve.

As to `C=CCCCCCCCCCO` [Compound 10-undecenol, 10-undecenol, reference compound], for the setting “FIG. 1d, doses 0.1 to 100 μg/ml”, the “inhibition of M. bovis BCG (control experiment with aglycon)” value is listed as “poor inhibitor”.

In turn, `C=CCCCCCCCCC[C@H]1O[C@H](CO)[C@@H](O)[C@@H]1O` [Compound 2] displayed an IC50 (listed as α-C-glycoside) of 0.2 µg/mL (≈ 0.698 µM). Under setting [1], the MIC90 was determined as 1.6 µg/mL (≈ 5.59 µM) and half-maximal inhibition (IC50) was put at 0.19 µg/mL (≈ 0.663 µM). In addition, under setting [2], the inhibition at 1 µg/mL amounted to 85%.

Under setting [1], `CC[C@@H](CO)NCCN[C@@H](CC)CO` [Ethambutol, ethambutol, reference compound] yielded an MIC90 of 2.9 µg/mL (≈ 14.2 µM) and an IC50 of 0.2 µg/mL (≈ 0.979 µM). Further, under setting [2], the inhibition at 1 µg/mL came to 85%.

Under setting [1], `C=CCCCCCCCCCC1OC(CO)C(O)C1O` (stereo not drawn) [Compound 1] had an MIC90 of 15 µg/mL (≈ 52.4 µM) and an IC50 of 1.1 µg/mL (≈ 3.84 µM). In addition, under setting [2], the inhibition at 1 µg/mL came to 48%.

`CO[C@H]1/C=C/O[C@@]2(C)Oc3c(C)c(O)c4c(O)c(c(/C=N/N5CCN(C)CC5)c(O)c4c3C2=O)NC(=O)/C(C)=C\C=C\[C@H](C)[C@H](O)[C@@H](C)[C@@H](O)[C@@H](C)[C@H](OC(C)=O)[C@@H]1C` [Rifampicin, rifampicin, reference compound]: the IC50 under setting [1] is 0.02 µg/mL (≈ 0.0243 µM). Besides, under “Mycobacterium tuberculosis variant bovis BCG, BCG, read-out: % Inhibition of growth of Mycobacterium Bovis BCG, at 0.2 μg/ml”, the inhibition at 0.2 µg/mL amounted to 99%.

`C=CCCCCCCCCCC1OC(COC2OC(CO)C(O)C2O)C(O)C1O` (stereo not drawn) [Compound 4] displayed an IC50 of 19 µg/mL (≈ 45.4 µM). The “% Inhibition of growth of Mycobacterium Bovis BCG” value (at 1 μg/ml concentration) is 28%.

Source of the values: US9663548B2, “10-α/β-D-arabinofuranosyl-undecenes as potential anti-mycobacterial agents and process for the preparation thereof” (priority 2011, dated 2017).
